One assay deals with Protease (Human immunodeficiency virus 1, UniProt Q9YQ12). As to the kind of experiment: Inhibition of HIV1 protease.
In assay [1] the test system is Human immunodeficiency virus 1. As to the kind of experiment: Antiviral activity against HIV1 LAI infected in human MT2 cells. In kind it is functional, organism-based. The settings on record: Human immunodeficiency virus 1, LAI.
Assay [2] has as its system Human immunodeficiency virus 1. The experiment in a line: Antiviral activity against darunavir-resistant HIV1 P20 infected in human MT4 cells by XTT assay. In kind it is functional, organism-based. As to conditions: Human immunodeficiency virus 1, P20, MT4.
Assay [3] has as its system Human immunodeficiency virus 1. The experiment in a line: Antiviral activity against HIV1 NL4-3 infected in human MT4 cells by XTT assay. Format: functional, organism-based. The settings on record: Human immunodeficiency virus 1, NL4-3, MT4. A general note: Tetrazolium assays rely on reduction of a dye to a coloured formazan, in cell work by metabolically active cells.

For assay [4], the system named is Human immunodeficiency virus 1. As to the kind of experiment: Resistance index, ratio of EC50 for darunavir-resistant HIV1 P20 infected in human MT4 cells by XTT assay to EC50 for HIV1 NL4-3 infected in human MT4 cells by XTT assay. In kind it is functional.
Assay [5] has as its system Human immunodeficiency virus 1. As to the kind of experiment: Antiviral activity against darunavir-resistant HIV1 P51 infected in human MT4 cells by XTT assay. Format: functional, organism-based. As to conditions: Human immunodeficiency virus 1, P51, MT4.
Assay [6] relates to Human immunodeficiency virus 1. As to the kind of experiment: Antiviral activity against darunavir-resistant HIV1 P10 infected in human MT4 cells by XTT assay. Format: functional, organism-based. The settings on record: Human immunodeficiency virus 1, P10, MT4.

pEC50, pIC50, pKi: −log10 of the molar value.

Chain of Protease (Q9YQ12 whole entry): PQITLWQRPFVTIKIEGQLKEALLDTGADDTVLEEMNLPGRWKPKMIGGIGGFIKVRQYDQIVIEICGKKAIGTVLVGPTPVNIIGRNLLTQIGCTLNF

Compound `COc1ccc(S(=O)(=O)N(CC(C)C)C[C@@H](O)[C@H](Cc2ccccc2)NC(=O)O[C@H]2CO[C@H]3OC[C@H](N=[N+]=[N-])[C@H]32)cc1` gave a pKi on Protease of 11.41. Besides, the negative logarithm of the IC50 (pIC50) in assay [1] was 8.36.

Compound `CN[C@H]1CO[C@@H]2OC[C@H](OC(=O)N[C@@H](Cc3ccccc3)[C@H](O)CN(CC(C)C)S(=O)(=O)c3ccc(OC)cc3)[C@@H]21` gave a pKi on Protease of 11.82. In addition, the negative-log EC50 (pEC50) is 7.49 in assay [2] and 7.54 in assay [3]. The compound also had a pIC50 in assay [1] of 7.46. The “Ratio EC50” value in assay [4] is 1.1.

The compound `COc1ccc(S(=O)(=O)N(CC(C)C)C[C@@H](O)[C@H](Cc2ccccc2)NC(=O)O[C@H]2CO[C@H]3OC[C@H](N(C)C(=O)OC(C)(C)C)[C@H]32)cc1` showed a pKi at Protease of 10.92. In addition, the negative-log IC50 (pIC50) in assay [1] was 7.43.

`CN[C@H]1CO[C@@H]2OC[C@H](OC(=O)N[C@@H](Cc3ccccc3)[C@H](O)CN(CC(C)C)S(=O)(=O)c3ccc(N)cc3)[C@@H]21`: the negative logarithm of the Ki (pKi) at Protease was 11.00. The compound also showed a negative logarithm of the IC50 (pIC50) in assay [1] of 6.32.

Compound `COc1ccc(S(=O)(=O)N(CC(C)C)C[C@@H](O)[C@H](Cc2ccccc2)NC(=O)O[C@H]2CO[C@H]3OC[C@H](NC(C)C)[C@H]32)cc1` gave a negative logarithm of the Ki (pKi) on Protease of 11.20. Moreover, the negative logarithm of the EC50 (pEC50) in assay [5] is 6.59; in assay [2], 7.62; in assay [3] it was 9.00; in assay [6], 7.68. The same compound gave a negative logarithm of the IC50 (pIC50) in assay [1] of 9.47. Further, the “Ratio EC50” value in assay [4] was found to be 23.

`COc1ccc(S(=O)(=O)N(CC(C)C)C[C@@H](O)[C@H](Cc2ccccc2)NC(=O)O[C@H]2CO[C@H]3OC[C@H](NC(=O)OC(C)(C)C)[C@H]32)cc1` gave a pKi on Protease of 10.85. In assay [1], the pIC50 was 8.36.

`CCN(CC)[C@H]1CO[C@@H]2OC[C@H](OC(=O)N[C@@H](Cc3ccccc3)[C@H](O)CN(CC(C)C)S(=O)(=O)c3ccc(OC)cc3)[C@@H]21` had a pKi at Protease of 10.85. Further, in assay [1], the negative logarithm of the IC50 (pIC50) is 8.14.

With `COc1ccc(S(=O)(=O)N(CC(C)C)C[C@@H](O)[C@H](Cc2ccccc2)NC(=O)O[C@H]2CO[C@H]3OC[C@H](N(C)C)[C@H]32)cc1`, the pKi at Protease is 10.85. This compound gave a pIC50 in assay [1] of 8.36.

Take `CCN[C@H]1CO[C@@H]2OC[C@H](OC(=O)N[C@@H](Cc3ccccc3)[C@H](O)CN(CC(C)C)S(=O)(=O)c3ccc(OC)cc3)[C@@H]21`: on Protease, the pKi was 10.57. Moreover, the negative logarithm of the EC50 (pEC50) in assay [5] is 6.64; in assay [3] it was 7.82; in assay [6], 7.41. Further, the pIC50 in assay [1] is 7.66.

Turning to `CCN(C(=O)OC(C)(C)C)[C@H]1CO[C@@H]2OC[C@H](OC(=O)N[C@@H](Cc3ccccc3)[C@H](O)CN(CC(C)C)S(=O)(=O)c3ccc(OC)cc3)[C@@H]21`, on Protease, the negative-log Ki (pKi) was 10.32.

For `COC(=O)N[C@H]1CO[C@@H]2OC[C@H](OC(=O)N[C@@H](Cc3ccccc3)[C@H](O)CN(CC(C)C)S(=O)(=O)c3ccc(OC)cc3)[C@@H]21`, at Protease, the negative logarithm of the Ki (pKi) was 10.62. For the same compound, the pIC50 in assay [1] was 8.43.

In turn, `COc1ccc(S(=O)(=O)N(CC(C)C)C[C@@H](O)[C@H](Cc2ccccc2)NC(=O)O[C@H]2CO[C@H]3OC[C@H](N)[C@H]32)cc1` had a pKi on Protease of 9.28. Also, the negative-log IC50 (pIC50) in assay [1] is 7.32.

One may read the pKi as −log10 of the Ki, conventionally taken in molar units. Low readings indicate a large Ki, high ones a small Ki. The term pIC50 denotes −log10 of the IC50, conventionally taken in molar units. The low end stands for a large IC50, the high end for a small IC50. The term pEC50 denotes −log10 of the EC50, conventionally taken in molar units.

For the origin of these results see ChEMBL document CHEMBL3603748, “Design of HIV-1 Protease Inhibitors with Amino-bis-tetrahydrofuran Derivatives as P2-Ligands to Enhance Backbone-Binding Interactions: Synthesis, Biological Evaluation, and Protein-Ligand X-ray Studies” (J Med Chem, 2015).
